Experimental data: patent publication US12653795B1, “Bupropion as a modulator of drug activity” (ANTECIP BIOVENTURES II LLC, priority 2022, dated 2026)

Experiment: Pharmacokinetics after administration of the subject combination
Conditions: co-administered with bupropion; dextromethorphan 30 to 60 mg, bupropion 75 to 150 mg
From the text: In the subject combination, bupropion inhibits the metabolism of dextromethorphan via CYP2D6.

COc1ccc2c(c1)[C@]13CCCC[C@@H]1[C@H](C2)N(C)CC3 [dextromethorphan]
pharmacokinetics at steady state (dose proportionality of AUC and Cmax): nonlinear pharmacokinetics
